Assays:
B16-F10 cells = test: Assay of melanin in B16-F10 cells (colorimetric, α-MSH stimulated); type: cell-based, murine; conditions: 0.1 μM α-MSH
Procedure: It is a test to measure the synthesis of melanin by colorimetric assay on a murine melanoma cell line: line B16-F10. With this test it is possible to evaluate the depigmenting or propigmenting property of active ingredients.
The B16-F10 cells were seeded in 96-well plates in DMEM medium supplemented with FCS (foetal calf serum), and incubated 24 h at 37° C., 5% CO2. The cells were stimulated with 0.1 μM α-MSH (to stimulate melanin synthesis, the observed stimulation being about 150%) and treated 72 h with the active ingredients to be assayed. Each concentration of active ingredient was assayed at least in triplicate. Total melanin and intracellular melanin dissolved in lysis buffer were assayed by absorbance read-off at 405 nm. The total proteins were assayed in the lysate and the results expressed in mg melanin/mg proteins. Percentage activity was calculated as follows: […]
A negative value indicates inhibition of the melanin synthesis and translates depigmenting activity of the compound, whereas a positive value indicates induced melanin synthesis and translates a propigmenting property of the molecule.
• B16-F10 cell lines between P10 and P20 (murine melanocytes) (ATCC, CRL-6475); • reagents: DMEM without Phenol Red (GIBCOBRL, 118800-028), 200 mM glutamax-I supplement (GIBCOBRL, 35050-038), glucose (SIGMA, G7021), PBS (GIBCOBRL, 14190-094), foetal calf serum (Invitrogen, 10270-098), trypsin-EDTA (GIBCOBRL, 25300-054), NaOH (Sigma, S8045-500G), DMSO (Sigma, 471267-11), Nle, Phe-Melanocyte Stimulating Hormone (Sigma, M-8764), melanin (Sigma, M-0418), BCA-COPPER (SIGMA, B9643 and C2284), BSA (SIGMA, P0914) B) Test to Study Anti-Oxidizing Capability Using Chemiluminescence (Photochem Analytic Jena) Principle

[1] = Log P (octanol/water partition coefficient); type: physicochemical
Excerpt: Log P, also called Log Kow, is a measurement of the differential solubility of chemical compounds in two solvents (octanol/water partition coefficient).
Log P is equal to the logarithm of the ratio of the concentrations of the examined substance in octanol and in water. Log P=Log(Coct/Cwater). With this value it is possible to assess the hydrophilic or hydrophobic (lipophilic) nature of a molecule. If Log P is positive and very high, this means that the molecule under consideration is much more soluble in octanol than in water, which reflects its lipophilic nature, and conversely. A value of Log P=0 means that the molecule is distributed equally between the two phases and Coct=Cwater (C. Hansch, J. F. Quinlan, G. L. Lawrence, Linear free energy relationship between partition coefficients and the aqueous solubility of organic liquids, J. Org. Chem., 33 (1968), 347-350; C. Hansch, A. Leo, Exploring QSAR—Fundamentals and Applications in Chemistry and Biology, American Chemical Society, Washington, 1995; J. Sangster, Octanol—Water Partition Coefficients: Fundamentals and Physical Chemistry, Wiley, Chichester, 1997; W. Jorgensen, E. Duffy, Advanced Drug Delivery Reviews, (54), 2002, 355-366).

[2] = Test to study anti-oxidizing capability using chemiluminescence (Photochem Analytic Jena); type: biochemical; conditions: quantity of sample needed for activity equivalent to 1 μg Trolox, superoxide anion trapping
Procedure: This test is used to determine the anti-oxidizing capability of the molecules. It is a method which generates free radicals via photochemical signal. The intensity of oxidation is 1000 times higher than obtained under normal conditions.
Detection is performed using chemiluminescence. This allows evaluation of water-soluble and liposoluble antioxidant molecules or extracts
The results are expressed in equivalent quantity of vitamin C or Trolox (6-hydroxy-2,5,7,8-tetramethylchroman-2-carboxylic acid) respectively. Sensitivity is in the order of one nanomole.
The anti-oxidizing activity studied in this test represents the capability of specifically trapping superoxide anions by chemiluminescence.
The quantified results are expressed in Trolox equivalent (standard) or in “μg of product per 1 μg of Trolox”. This means that a quantity x of sample is needed to obtain activity equivalent to the activity detected with 1 μg of standard. It is the antioxidizing power in relation to a reference; this avoids having to take into account the concentrations tested.
The superoxide radical: O2^∘^− is generated by photochemical reaction: L+hv(UV)+O2→L*O2→L^∘^++O2^∘^− • L*: luminol in the excited state L^∘+: luminol radical Signal Detection
Part of the superoxide anions are inhibited by the antioxidants. The remaining free radicals are quantified by chemiluminescence. L^∘^++O2^∘^−→N2+AP*^2−→AP^2−+hv (luminescence)
AP*^2−: aminophthalate in the excited state

[3] = Mus musculus, B16-F10, 72 h, negative = inhibition, positive = stimulation, read-out: Melanin synthesis on B16

| Molecule | logP [1] | melting point [°C] | other results |
| --- | --- | --- | --- |
| COc1cc(C2C3=C(CC(C)(C)CC3=O)N(Cc3ccccc3)C3=C2C(=O)CC(C)(C)C3)ccc1O [Example 21, 10-benzyl-9-(4-hydroxy-3-methoxyphenyl)-3,3,6,6-tetramethyl-3,4,6,7,9,10-hexahydroacridine-1,8(2H,5H)-dione] | 3.46 | – | activation at 100 µM (B16-F10 cells; [3]): 48% |
| CCCCCN1C2=C(C(=O)CC(C)(C)C2)C(c2ccc(O)c(OC)c2)C2=C1CC(C)(C)CC2=O [Example 15, 9-(4-hydroxy-3-methoxyphenyl)-3,3,6,6-tetramethyl-10-pentyl-3,4,6,7,9,10-hexahydroacridine-1,8(2H,5H)-dione] | 3.38 | 194.5 | activation at 50 µM (B16-F10 cells; [3]): 42% |
| Nle, Phe-Melanocyte Stimulating Hormone [α-MSH, reference compound] | – | – | Stimulation of melanin synthesis (B16-F10 cells; B16-F10 cells): about 150% |
| CCCCN1C2=C(C(=O)CC(C)(C)C2)C(c2ccc(O)c(OC)c2)C2=C1CC(C)(C)CC2=O [Example 14, 10-butyl-9-(4-hydroxy-3-methoxyphenyl)-3,3,6,6-tetramethyl-3,4,6,7,9,10-hexahydroacridine-1,8(2H,5H)-dione] | 2.97 | – | activation at 20 µM (B16-F10 cells; [3]): 45% |
| COc1cc(C2C3=C(CC(C)(C)CC3=O)NC3=C2C(=O)CC(C)(C)C3)ccc1O [Example 10, 9-(4-hydroxy-3-methoxyphenyl)-3,3,6,6-tetramethyl-3,4,6,7,9,10-hexahydroacridine-1,8(2H,5H)-dione] | 1.49 | 309.8 | activation at 100 µM (B16-F10 cells; [3]): 29% |
| COc1cc(C2C3=C(CC(C)(C)CC3=O)N(CCCc3ccccc3)C3=C2C(=O)CC(C)(C)C3)ccc1O [Example 23, 9-(4-hydroxy-3-methoxyphenyl)-3,3,6,6-tetramethyl-10-(3-phenylpropyl)-3,4,6,7,9,10-hexahydroacridine-1,8(2H,5H)-dione] | 4.15 | – | activation at 10 µM (B16-F10 cells; Mus musculus, B16-F10, at 10 μM, 72 h, negative = inhibition, positive = stimulation, read-out: Melanin synthesis on B16): -37% |
| CCCCCCCCCCCN1C2=C(C(=O)CC(C)(C)C2)C(c2ccc(O)c(OC)c2)C2=C1CC(C)(C)CC2=O [Example 20, 9-(4-hydroxy-3-methoxyphenyl)-3,3,6,6-tetramethyl-10-undecyl-3,4,6,7,9,10-hexahydroacridine-1,8(2H,5H)-dione] | 5.89 | 118.9 | activation at 5 µM (B16-F10 cells; [3]): -57% |
| CN1C2=C(C(=O)CC(c3ccccc3)C2)C(c2ccc(O)c(O)c2)C2=C1CC(c1ccccc1)CC2=O (stereo not shown) [Example 5, 9-(3,4-dihydroxyphenyl)-10-methyl-3,6-diphenyl-3,4,6,7,9,10-hexahydroacridine-1,8(2H,5H)-dione] | – | – | μg sample per 1 μg of Trolox [2]: 0.05 μg sample per 1 μg of Trolox |
| CCCCCCCCN1C2=C(C(=O)CC(C)(C)C2)C(c2ccc(O)c(OC)c2)C2=C1CC(C)(C)CC2=O [Example 18, 9-(4-hydroxy-3-methoxyphenyl)-3,3,6,6-tetramethyl-10-octyl-3,4,6,7,9,10-hexahydroacridine-1,8(2H,5H)-dione] | 4.63 | 154.2 | activation at 5 µM (B16-F10 cells; [3]): -59% |
| CCCCCCCN1C2=C(C(=O)CC(C)(C)C2)C(c2ccc(O)c(OC)c2)C2=C1CC(C)(C)CC2=O [Example 17, 10-heptyl-9-(4-hydroxy-3-methoxyphenyl)-3,3,6,6-tetramethyl-3,4,6,7,9,10-hexahydroacridine-1,8(2H,5H)-dione] | 4.22 | 154.8 | activation at 20 µM (B16-F10 cells; [3]): -68% |
| CCCN1C2=C(C(=O)CC(C)(C)C2)C(c2ccc(O)c(OC)c2)C2=C1CC(C)(C)CC2=O [Example 13, 9-(4-hydroxy-3-methoxyphenyl)-3,3,6,6-tetramethyl-10-propyl-3,4,6,7,9,10-hexahydroacridine-1,8(2H,5H)-dione] | 2.55 | 259.5 | activation at 50 µM (B16-F10 cells; [3]): 43% |
| CCCCCCN1C2=C(C(=O)CC(C)(C)C2)C(c2ccc(O)c(OC)c2)C2=C1CC(C)(C)CC2=O [Example 16, 10-hexyl-9-(4-hydroxy-3-methoxyphenyl)-3,3,6,6-tetramethyl-3,4,6,7,9,10-hexahydroacridine-1,8(2H,5H)-dione] | 3.8 | 177.7 | – |
| CCCCCCCCCCN1C2=C(C(=O)CC(c3ccccc3)C2)C(c2ccc(O)c(O)c2)C2=C1CC(c1ccccc1)CC2=O (stereo not shown) [Example 6, 10-decyl-9-(3,4-dihydroxyphenyl)-3,6-diphenyl-3,4,6,7,9,10-hexahydroacridine-1,8(2H,5H)-dione] | – | – | μg sample per 1 μg of Trolox [2]: 0.04 μg sample per 1 μg of Trolox |
| COc1cc(C2C3=C(CC(C)(C)CC3=O)N(C)C3=C2C(=O)CC(C)(C)C3)ccc1O [Example 11, 9-(4-hydroxy-3-methoxyphenyl)-3,3,6,6,10-pentamethyl-3,4,6,7,9,10-hexahydroacridine-1,8(2H,5H)-dione] | 1.72 | – | activation at 100 µM (B16-F10 cells; [3]): 47% |
| COc1cc(C2C3=C(CC(C)(C)CC3=O)N(CCc3ccccc3)C3=C2C(=O)CC(C)(C)C3)ccc1O [Example 22, 9-(4-hydroxy-3-methoxyphenyl)-3,3,6,6-tetramethyl-10-phenethyl-3,4,6,7,9,10-hexahydroacridine-1,8(2H,5H)-dione] | 3.74 | – | – |
| CCCCCCCCCN1C2=C(C(=O)CC(C)(C)C2)C(c2ccc(O)c(OC)c2)C2=C1CC(C)(C)CC2=O [Example 19, 9-(4-hydroxy-3-methoxyphenyl)-3,3,6,6-tetramethyl-10-nonyl-3,4,6,7,9,10-hexahydroacridine-1,8(2H,5H)-dione] | 5.05 | 127 | activation at 5 µM (B16-F10 cells; [3]): -42% |
| COc1cc(C2C3=C(CC(C)(C)CC3=O)N(CC(c3ccccc3)c3ccccc3)C3=C2C(=O)CC(C)(C)C3)ccc1O [Example 24, 10-(2,2-diphenylethyl)-9-(4-hydroxy-3-methoxyphenyl)-3,3,6,6-tetramethyl-3,4,6,7,9,10-hexahydroacridine-1,8(2H,5H)-dione] | 5.32 | – | activation at 5 µM (B16-F10 cells; [3]): -37% |
| CN1C2=C(C(=O)CC(C)(C)C2)C(c2ccc(O)c(O)c2)C2=C1CC(C)(C)CC2=O [Example 4, 9-(3,4-dihydroxyphenyl)-3,3,6,6,10-pentamethyl-3,4,6,7,9,10-hexahydroacridine-1,8(2H,5H)-dione] | – | – | μg sample per 1 μg of Trolox [2]: 0.017 μg sample per 1 μg of Trolox |
| CCN1C2=C(C(=O)CC(C)(C)C2)C(c2ccc(O)c(OC)c2)C2=C1CC(C)(C)CC2=O [Example 12, 10-ethyl-9-(4-hydroxy-3-methoxyphenyl)-3,3,6,6-tetramethyl-3,4,6,7,9,10-hexahydroacridine-1,8(2H,5H)-dione] | 2.06 | – | activation at 50 µM (B16-F10 cells; [3]): 72% |

Reference: patent publication US9493421B2, “Acridinedione derivatives for treating pigmentation disorders and ageing of the skin” (PIERRE FABRE DERMO-COSMETIQUE, priority 2011, dated 2016)
